According to US12466803B2 (priority 2021, dated 2025):

tested on: phospho (S293) BCKDHA in human skeletal myocytes; assay: Phospho BCKDHA Alpha Surefire Cell Assay; assay type: cell-based; details: 60 minutes with compound, geometric mean

IC50 [nM] | Structure (SMILES)
> 56000 | C[C@@H]1CCc2cc(-c3c(C(=O)O)sc4cc(F)ccc34)ccc2O1 (single isomer, unassigned) [Example 44, 6-fluoro-3-(2-methyl-3,4-dihydro-2H-1-benzopyran-6-yl)-1-benzothiophene-2-carboxylic acid, ENANT-2]
3900 | C[C@@H]1CCc2c(ccc(-c3c(C(=O)O)sc4cc(F)ccc34)c2F)O1 (single isomer, unassigned) [Example 78, 6-fluoro-3-(5-fluoro-2-methyl-3,4-dihydro-2H-1-benzopyran-6-yl)-1-benzothiophene-2-carboxylic acid, ENANT-2]
8600 | C[C@@H]1CCc2c(ccc(-c3c(C(=O)O)sc4cc(F)ccc34)c2F)O1 (single isomer, unassigned) [Example 77, 6-fluoro-3-(5-fluoro-2-methyl-3,4-dihydro-2H-1-benzopyran-6-yl)-1-benzothiophene-2-carboxylic acid, ENANT-1]

Structure (SMILES) | IC50 [nM]
COc1c(F)cc(Cl)c(-c2c(C(=O)O)sc3cc(F)ccc23)c1F (atropisomer, axis not shown) [Example 16, 3-(6-Chloro-2,4-difluoro-3-methoxyphenyl)-6-fluoro-1-benzothiophene-2-carboxylic acid, ATROP-2] | 15

same assay, conditions: Homo sapiens, 1 h, 60 minutes with compound, geometric mean

IC50 [nM] | Structure (SMILES)
2600 | COc1cccc(-c2c(C(=O)O)sc3cc(Cl)ccc23)c1F [Example 30, 6-chloro-3-(2-fluoro-3-methoxyphenyl)-1-benzothiophene-2-carboxylic acid]
120 | Cc1c(F)ccc(-c2c(C(=O)O)sc3cc(F)ccc23)c1F [Example 117, 3-(2,4-difluoro-3-methylphenyl)-6-fluoro-1-benzothiophene-2-carboxylic acid]
> 60000 | O=C(O)c1sc2cc(F)cc(F)c2c1-c1ccccc1 [Example 5, Ammonium 4,6-difluoro-3-phenyl-1-benzothiophene-2-carboxylate]
430 | O=C(O)c1sc2cc(F)ccc2c1-c1c(F)cc2c(c1F)CCCO2 [Example 1, 3-(5,7-Difluoro-3,4-dihydro-2H-1-benzopyran-6-yl)-6-fluoro-1-benzothiophene-2-carboxylic acid]
3000 | COc1cc(-c2c(C(=O)O)sc3cc(F)ccc23)c(F)cc1Cl [Example 36, 3-(4-chloro-2-fluoro-5-methoxyphenyl)-6-fluoro-1-benzothiophene-2-carboxylic acid]
480 | Cc1cc(-c2c(C(=O)O)sc3cc(F)ccc23)c(F)cc1Cl [Example 106, 3-(4-chloro-2-fluoro-5-methylphenyl)-6-fluoro-1-benzothiophene-2-carboxylic acid]
4500 | C[C@@H]1CCc2cc(-c3c(C(=O)O)sc4cc(F)ccc34)cc(F)c2O1 (single isomer, unassigned) [Example 72, 6-fluoro-3-(8-fluoro-2-methyl-3,4-dihydro-2H-1-benzopyran-6-yl)-1-benzothiophene-2-carboxylic acid, ENANT-1]
310 | CCc1c(F)ccc(-c2c(C(=O)O)sc3cc(F)ccc23)c1F [Example 86, 3-(3-ethyl-2,4-difluorophenyl)-6-fluoro-1-benzothiophene-2-carboxylic acid]
48 | COc1c(F)ccc(-c2c(C(=O)O)sc3cc(Cl)ccc23)c1F [Example 13, 6-Chloro-3-(2,4-difluoro-3-methoxyphenyl)-1-benzothiophene-2-carboxylic acid]
730 | O=C(O)c1sc2cc(Cl)ccc2c1-c1cc(F)c(F)cc1F [Example 133, 6-chloro-3-(2,4,5-trifluorophenyl)-1-benzothiophene-2-carboxylic acid]
2300 | CCc1nccc(-c2c(C(=O)O)sc3cc(F)ccc23)c1F [Example 112, 3-(2-ethyl-3-fluoropyridin-4-yl)-6-fluoro-1-benzothiophene-2-carboxylic acid]
2900 | O=C(O)c1sc2cc(F)ccc2c1-c1c(F)cc(F)cc1F [Example 60, 6-fluoro-3-(2,4,6-trifluorophenyl)-1-benzothiophene-2-carboxylic acid]
12000 | O=C(O)c1sc2cc(F)ccc2c1-c1c(F)cccc1F [Example 48, 3-(2,6-difluorophenyl)-6-fluoro-1-benzothiophene-2-carboxylic acid]
1800 | COc1cc(-c2c(C(=O)O)sc3cc(F)ccc23)c(F)c(F)c1Cl [Example 114, 3-(4-chloro-2,3-difluoro-5-methoxyphenyl)-6-fluoro-1-benzothiophene-2-carboxylic acid]
4200 | COCc1c(F)c(F)cc(-c2c(C(=O)O)sc3cc(F)ccc23)c1F [Example 53, 6-fluoro-3-[2,4,5-trifluoro-3-(methoxymethyl)phenyl]-1-benzothiophene-2-carboxylic acid]
4000 | CC1CCc2c(cc(F)c(-c3c(C(=O)O)sc4cc(Cl)ccc34)c2F)O1 (centres unmarked) [Example 80, 6-chloro-3-(5,7-difluoro-2-methyl-3,4-dihydro-2H-1-benzopyran-6-yl)-1-benzothiophene-2-carboxylic acid]
1800 | O=C(O)c1sc2cc(F)ccc2c1-c1ccc(Cl)c(F)c1F [Example 65, 3-(4-chloro-2,3-difluorophenyl)-6-fluoro-1-benzothiophene-2-carboxylic acid]
190 | O=C(O)c1sc2cc(F)ccc2c1-c1ccc(F)c(C2CC2)c1F [Example 147, 3-(3-cyclopropyl-2,4-difluorophenyl)-6-fluoro-1-benzothiophene-2-carboxylic acid]
6000 | C[C@@H]1CCc2cc(-c3c(C(=O)O)sc4cc(F)ccc34)c(F)cc2O1 (single isomer, unassigned) [Example 68, 6-fluoro-3-(7-fluoro-2-methyl-3,4-dihydro-2H-1-benzopyran-6-yl)-1-benzothiophene-2-carboxylic acid, ENANT-1]

IC50 [nM] | Structure (SMILES)
4500 | CC1CCc2cc(-c3c(C(=O)O)sc4cc(F)ccc34)cc(F)c2O1 (centres unmarked) [Example 71, 6-fluoro-3-(8-fluoro-2-methyl-3,4-dihydro-2H-1-benzopyran-6-yl)-1-benzothiophene-2-carboxylic acid]
600 | O=C(O)c1sc2cc(F)ccc2c1-c1cc(F)c(F)c(F)c1F [Example 109, 6-fluoro-3-(2,3,4,5-tetrafluorophenyl)-1-benzothiophene-2-carboxylic acid]
> 40000 | C[C@@H]1CCc2cc(-c3c(C(=O)O)sc4cc(Cl)ccc34)ccc2O1 (single isomer, unassigned) [Example 41, 6-chloro-3-(2-methyl-3,4-dihydro-2H-1-benzopyran-6-yl)-1-benzothiophene-2-carboxylic acid, ENANT-1]
2100 | COc1ncc(F)c(-c2c(C(=O)O)sc3cc(F)ccc23)c1F [Example 61, 3-(3,5-difluoro-2-methoxypyridin-4-yl)-6-fluoro-1-benzothiophene-2-carboxylic acid]
120 | Cc1c(F)c(-c2c(C(=O)O)sc3cc(Cl)ccc23)cc(F)c1Cl [Example 136, ammonium 6-chloro-3-(4-chloro-2,5-difluoro-3-methylphenyl)-1-benzothiophene-2-carboxylate]
720 | Cc1ncc(F)c(-c2c(C(=O)O)sc3cc(F)ccc23)c1F [Example 8, 3-(3,5-Difluoro-2-methylpyridin-4-yl)-6-fluoro-1-benzothiophene-2-carboxylic acid]
5100 | CC1CCc2cc(-c3c(C(=O)O)sc4cc(F)ccc34)c(F)cc2O1 (centres unmarked) [Example 67, 6-fluoro-3-(7-fluoro-2-methyl-3,4-dihydro-2H-1-benzopyran-6-yl)-1-benzothiophene-2-carboxylic acid]
1100 | O=C(O)c1sc2cc(Cl)ccc2c1-c1ccc(F)c(F)c1F [Example 33, 6-chloro-3-(2,3,4-trifluorophenyl)-1-benzothiophene-2-carboxylic acid]
5500 | COc1cccc(-c2c(C(=O)O)sc3ccccc23)c1F [Example 26, 3-(2-fluoro-3-methoxyphenyl)-1-benzothiophene-2-carboxylic acid]
620 | O=C(O)c1sc2cc(F)ccc2c1-c1cc(Cl)c(F)cc1F [Example 108, 3-(5-chloro-2,4-difluorophenyl)-6-fluoro-1-benzothiophene-2-carboxylic acid]
> 60000 | CCOc1ccc(-c2c(C(=O)O)sc3cc(F)ccc23)c(F)c1F [Example 34, 3-(4-ethoxy-2,3-difluorophenyl)-6-fluoro-1-benzothiophene-2-carboxylic acid]
25000 | O=C(O)c1sc2cc(F)ccc2c1-c1ccc2c(c1)CCCC2 [Example 37, 6-fluoro-3-(5,6,7,8-tetrahydronaphthalen-2-yl)-1-benzothiophene-2-carboxylic acid]
1000 | CC1CCc2c(cc(F)c(-c3c(C(=O)O)sc4cc(F)ccc34)c2F)O1 (centres unmarked) [Example 3, 3-(5,7-Difluoro-2-methyl-3,4-dihydro-2H-1-benzopyran-6-yl)-6-fluoro-1-benzothiophene-2-carboxylic acid]
17000 | CCOc1ccc(F)c(-c2c(C(=O)O)sc3cc(F)ccc23)c1F [Example 93, 3-(3-ethoxy-2,6-difluorophenyl)-6-fluoro-1-benzothiophene-2-carboxylic acid]
64 | COc1c(Cl)cc(F)c(-c2c(C(=O)O)sc3cc(F)ccc23)c1F [Example 52, 3-(4-chloro-2,6-difluoro-3-methoxyphenyl)-6-fluoro-1-benzothiophene-2-carboxylic acid]
71 | COc1c(F)cc(F)c(-c2c(C(=O)O)sc3cc(Cl)ccc23)c1F [Example 63, 6-chloro-3-(2,4,6-trifluoro-3-methoxyphenyl)-1-benzothiophene-2-carboxylic acid]
1000 | Cc1cc(-c2c(C(=O)O)sc3cc(F)ccc23)c(F)cc1F [Example 95, 3-(2,4-difluoro-5-methylphenyl)-6-fluoro-1-benzothiophene-2-carboxylic acid]
4400 | O=C(O)c1sc2cc(F)ccc2c1-c1ccc(F)c(F)c1F [Example 19, 6-Fluoro-3-(2,3,4-trifluorophenyl)-1-benzothiophene-2-carboxylic acid]
